Results on 27 molecules are retold here after patent US8669249B2, “Poly (ADP-ribose) polymerase (PARP) inhibitors” (Takeda Pharmaceutical Company Limited, priority 2009, dated 2014).

The target of one experiment is T1, PARP (Homo sapiens, UniProt P09874).
T1 construct: purchased Trevigen 4684-096-K HT (kit); 4684-096-01 (PARP enzyme)
Put plainly: PARP ELISA (ELISA-based colorimetric PARP/Apoptosis Assay kit, Trevigen). The format is biochemical. Conditions: pIC50=-log10 IC50, IC50 in mol/L; inhibition of PARP catalytic activity. The essentials: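 Quenched after 10 min catalysis by aspiration and four PBS/0.1% Triton X-100 washes. Poly(ADP-ribose) detected with mouse anti-PAR monoclonal antibody, goat anti-mouse IgG-HRP and HRP substrate; colorimetric signal proportional to PARP catalytic activity.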

A further experiment relates to Jurkat cell line. Briefly: PARP cellular chemopotentiation assay (MTS, with/without TMZ). The format is cell-based. Conditions: Chemopotentiation factor: ratio of EC50 values of Jurkat cells co-treated without and with 100 μM TMZ; 96 hours. The method in brief: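 Jurkat cells, 10,000/well, pre-cultured 24 h, then treated 96 h with serial compound dilutions (0.5% DMSO) with or without 100 μM TMZ. Viability by MTS conversion (OD490), normalized to DMSO controls; EC50 from curve fits, PF50 = EC50 without TMZ / EC50 with TMZ.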

T1 sequence (P09874 whole entry): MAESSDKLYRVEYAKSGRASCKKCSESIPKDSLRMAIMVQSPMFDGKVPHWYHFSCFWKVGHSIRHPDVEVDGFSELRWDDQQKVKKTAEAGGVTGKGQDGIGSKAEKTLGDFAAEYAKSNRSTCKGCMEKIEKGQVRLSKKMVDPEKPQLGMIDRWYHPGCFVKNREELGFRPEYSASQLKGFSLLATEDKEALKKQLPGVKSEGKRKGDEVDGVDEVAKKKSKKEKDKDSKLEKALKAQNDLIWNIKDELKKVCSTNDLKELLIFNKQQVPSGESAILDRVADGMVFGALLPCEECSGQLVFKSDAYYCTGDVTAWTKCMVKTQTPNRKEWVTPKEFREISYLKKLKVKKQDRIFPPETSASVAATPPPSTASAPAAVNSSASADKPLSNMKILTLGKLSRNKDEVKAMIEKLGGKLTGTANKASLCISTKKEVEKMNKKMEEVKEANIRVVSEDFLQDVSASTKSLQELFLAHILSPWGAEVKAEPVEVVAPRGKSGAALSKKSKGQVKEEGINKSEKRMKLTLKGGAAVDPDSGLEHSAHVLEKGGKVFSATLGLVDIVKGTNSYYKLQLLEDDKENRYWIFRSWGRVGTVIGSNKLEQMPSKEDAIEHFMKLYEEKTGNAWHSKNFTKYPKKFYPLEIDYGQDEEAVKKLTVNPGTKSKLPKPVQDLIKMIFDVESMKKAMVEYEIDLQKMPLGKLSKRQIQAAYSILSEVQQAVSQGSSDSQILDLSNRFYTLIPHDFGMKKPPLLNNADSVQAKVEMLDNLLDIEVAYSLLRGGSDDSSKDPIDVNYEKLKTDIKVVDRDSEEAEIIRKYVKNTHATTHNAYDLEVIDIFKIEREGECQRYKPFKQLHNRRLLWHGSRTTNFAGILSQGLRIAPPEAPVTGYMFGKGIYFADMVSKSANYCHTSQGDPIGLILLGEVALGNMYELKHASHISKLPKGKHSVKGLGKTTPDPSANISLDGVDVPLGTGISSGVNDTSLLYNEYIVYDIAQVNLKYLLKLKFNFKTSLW

The molecule `CCNC(=O)c1ccc(N2CCN(Cc3cc4c(c(OCC)c3)OC(C)C(=O)N4)CC2)c(C)c1` (stereo not drawn) [Compound 401, 4-(4-((8-Ethoxy-2-methyl-3-oxo-3,4-dihydro-2H-benzo[b][1,4]oxazin-6-yl)methyl)piperazin-1-yl)-N-ethyl-3-methylbenzamide] showed a concentration for half-maximal inhibition (IC50) against PARP of 50.1 nM. In addition, in the experiment with Jurkat cell line, the PF50 is listed as more than 5000.

`CCNC(=O)c1ccc(N2CCN(Cc3cc(C)c4c(c3)NC(=O)C(C)O4)CC2)c(C)c1` (stereo not drawn) [Compound 385, 4-(4-((2,8-Dimethyl-3-oxo-3,4-dihydro-2H-benzo[b][1,4]oxazin-6-yl)methyl)piperazin-1-yl)-N-ethyl-3-methylbenzamide]: half-maximal inhibition against PARP (IC50) required 50.1 nM. In the experiment with Jurkat cell line, the PF50 is 5.9.

`CCNC(=O)c1ccc(N2CCN(Cc3cc(Cc4ccccc4)c4c(c3)NC(=O)C(C)O4)CC2)cc1` (stereo not drawn) [Compound 355, 4-(4-((8-Benzyl-2-methyl-3-oxo-3,4-dihydro-2H-benzo[b][1,4]oxazin-6-yl)methyl)piperazin-1-yl)-N-ethylbenzamide] had a concentration for half-maximal inhibition (IC50) against PARP of more than 200 nM. Besides, the PF50 in the experiment with Jurkat cell line is recorded as 1.3.

On to `CC1Oc2cc(F)c(CN3CCN(c4ccc(C#N)cn4)CC3)cc2NC1=O` (stereo not drawn) [Compound 340, 6-(4-((7-Fluoro-2-methyl-3-oxo-3,4-dihydro-2H-benzo[b][1,4]oxazin-6-yl)methyl)piperazin-1-yl)nicotinonitrile], for which the half-inhibitory concentration (IC50) against PARP was 63.1 nM. In addition, the PF50 in the experiment on Jurkat cell line stood at 0.9.

In the case of `CCOc1cc(CN2CCN(c3ccc(C(=O)NC)cc3)CC2)cc2c1OC(C)C(=O)N2` (stereo not drawn) [Compound 398, 4-(4-((8-Ethoxy-2-methyl-3-oxo-3,4-dihydro-2H-benzo[b][1,4]oxazin-6-yl)methyl)piperazin-1-yl)-N-methylbenzamide], it took 79.4 nM to reach half-maximal inhibition against PARP (IC50). For the same molecule, in the experiment on Jurkat cell line, the PF50 is more than 2.0.

In turn, `CC1Oc2ccc(Cn3ncc4ccccc43)cc2NC1=O` (stereo not drawn) [Compound 345, 6-((1H-Indazol-1-yl)methyl)-2-methyl-2H-benzo[b][1,4]oxazin-3(4H)-one] had an IC50 at PARP of 79.4 nM. Besides, the PF50 in the experiment with Jurkat cell line came to 1.2.

For `CNC(=O)c1ccc(N2CCN(Cc3cc(Cc4ccccc4)c4c(c3)NC(=O)C(C)O4)CC2)cc1` (stereo not drawn) [Compound 353, 4-(4-((8-Benzyl-2-methyl-3-oxo-3,4-dihydro-2H-benzo[b][1,4]oxazin-6-yl)methyl)piperazin-1-yl)-N-methylbenzamide], the IC50 against PARP is more than 200 nM. Also, in the experiment on Jurkat cell line, the PF50 came out at 1.3.

Molecule `CNC(=O)c1ccc(N2CCN(Cc3cc(C)c4c(c3)NC(=O)C(C)O4)CC2)c(Cl)c1` (stereo not drawn) [Compound 383, 3-Chloro-4-(4-((2,8-dimethyl-3-oxo-3,4-dihydro-2H-benzo[b][1,4]oxazin-6-yl)methyl)piperazin-1-yl)-N-methylbenzamide] gave a concentration for half-maximal inhibition (IC50) at PARP of 50.1 nM. Also, in the experiment with Jurkat cell line, the PF50 came out at 3.2.

In turn, `CCNC(=O)c1ccc(N2CCN(Cc3cc4c(c(OC)c3)OCC(=O)N4)CC2)c(C)c1` [Compound 374, N-Ethyl-4-(4-((8-methoxy-3-oxo-3,4-dihydro-2H-benzo[b][1,4]oxazin-6-yl)methyl)piperazin-1-yl)-3-methylbenzamide] showed an IC50 against PARP of 31.6 nM. In addition, the PF50 in the experiment on Jurkat cell line was less than 2.0.

For the molecule `COc1cc(CN2CCN(c3ccc(C(=O)NC4CC4)cc3Cl)CC2)cc2c1OC(C)C(=O)N2` (stereo not drawn) [Compound 373, 3-Chloro-N-cyclopropyl-4-(4-((8-methoxy-2-methyl-3-oxo-3,4-dihydro-2H-benzo[b][1,4]oxazin-6-yl)methyl)piperazin-1-yl)benzamide], the IC50 on PARP was 20 nM. Further, the PF50 in the experiment on Jurkat cell line is listed as 3.2.

For the molecule `CNC(=O)c1ccc(N2CCN(Cc3cc(C)c4c(c3)NC(=O)C(C)O4)CC2)c(F)c1` (stereo not drawn) [Compound 380, 4-(4-((2,8-Dimethyl-3-oxo-3,4-dihydro-2H-benzo[b][1,4]oxazin-6-yl)methyl)piperazin-1-yl)-3-fluoro-N-methylbenzamide], the 50% inhibitory concentration (IC50) against PARP was 50.1 nM. Also, in the experiment on Jurkat cell line, the PF50 worked out at 4.0.

In turn, `CCNC(=O)c1ccc(N2CCN(Cc3cc4c(c(OC(F)F)c3)OC(C)C(=O)N4)CC2)cc1` (stereo not drawn) [Compound 404, 4-(4-((8-(Difluoromethoxy)-2-methyl-3-oxo-3,4-dihydro-2H-benzo[b][1,4]oxazin-6-yl)methyl)piperazin-1-yl)-N-ethylbenzamide] gave an IC50 on PARP of 31.6 nM. The PF50 in the experiment with Jurkat cell line is more than 2.0.

Molecule `CCOc1cc(CN2CCN(c3ccc(C(=O)NC4CC4)cc3C)CC2)cc2c1OC(C)C(=O)N2` (stereo not drawn) [Compound 402, N-Cyclopropyl-4-(4-((8-ethoxy-2-methyl-3-oxo-3,4-dihydro-2H-benzo[b][1,4]oxazin-6-yl)methyl)piperazin-1-yl)-3-methylbenzamide] showed an IC50 at PARP of 39.8 nM. Further, the PF50 in the experiment with Jurkat cell line is on record as more than 10000.

Take `CC1Oc2ccc(CC3CCN(c4ccccc4)CC3)cc2NC1=O` (stereo not drawn) [Compound 389, 2-Methyl-6-((1-phenylpiperidin-4-yl)methyl)-2H-benzo[b][1,4]oxazin-3(4H)-one]: the IC50 on PARP is more than 200 nM. For the same molecule, in the experiment on Jurkat cell line, the PF50 is listed as 1.1.

On to `CNC(=O)c1ccc(N2CCN(Cc3cc4c(c(OC(F)F)c3)OC(C)C(=O)N4)CC2)cc1` (stereo not drawn) [Compound 403, 4-(4-((8-(Difluoromethoxy)-2-methyl-3-oxo-3,4-dihydro-2H-benzo[b][1,4]oxazin-6-yl)methyl)piperazin-1-yl)-N-methylbenzamide], for which the IC50 on PARP was 63.1 nM. In the experiment on Jurkat cell line, the PF50 was more than 2.0.

On to `CNC(=O)c1ccc(N2CCN(Cc3cc(F)c4c(c3)NC(=O)C(C)O4)CC2)nc1` (stereo not drawn) [Compound 314, 6-(4-((8-Fluoro-2-methyl-3-oxo-3,4-dihydro-2H-benzo[b][1,4]oxazin-6-yl)methyl)piperazin-1-yl)-N-methylnicotinamide], for which the 50% inhibitory concentration (IC50) against PARP was 31.6 nM. The PF50 in the experiment on Jurkat cell line was found to be 1.8.

Regarding `CC1Oc2c(cc(CN3CCN(c4ccc(C#N)cc4)CC3)cc2C2CC2)NC1=O` (stereo not drawn) [Compound 352, 4-(4-((8-Cyclopropyl-2-methyl-3-oxo-3,4-dihydro-2H-benzo[b][1,4]oxazin-6-yl)methyl)piperazin-1-yl)benzonitrile], the IC50 against PARP was 79.4 nM. For the same molecule, the PF50 with Jurkat cell line turned out to be 6.3.

Take `CNC(=O)c1ccc(N2CCN(Cc3cc4c(c(OC)c3)OC(C)C(=O)N4)CC2)c(C)c1` (stereo not drawn) [Compound 362, 4-(4-((8-Methoxy-2-methyl-3-oxo-3,4-dihydro-2H-benzo[b][1,4]oxazin-6-yl)methyl)piperazin-1-yl)-N,3-dimethylbenzamide]: at PARP, inhibition was half-maximal at 31.6 nM (IC50). In addition, the PF50 with Jurkat cell line is on record as more than 1700.

In the case of `CCNC(=O)c1ccc(N2CCN(Cc3cc(C)c4c(c3)NC(=O)C(C)O4)CC2)c(F)c1` (stereo not drawn) [Compound 381, 4-(4-((2,8-Dimethyl-3-oxo-3,4-dihydro-2H-benzo[b][1,4]oxazin-6-yl)methyl)piperazin-1-yl)-N-ethyl-3-fluorobenzamide], the half-maximal inhibitory concentration (IC50) against PARP was 39.8 nM. The PF50 with Jurkat cell line is given as more than 2.

The molecule `CCNC(=O)c1ccc(N2CCN(Cc3ccc4c(c3)NC(=O)[C@H](C)O4)CC2)cc1` [Compound 249, (S)-N-Ethyl-4-(4-((2-methyl-3-oxo-3,4-dihydro-2H-benzo[b][1,4]oxazin-6-yl)methyl)piperazin-1-yl)benzamide] had a concentration for half-maximal inhibition (IC50) at PARP not above 31.6 nM. In addition, in the experiment on Jurkat cell line, the PF50 is 1.0-1.9.

At PARP, `CCCc1cc(CN2CCN(c3ccc(C(=O)NC)cc3)CC2)cc2c1OC(C)C(=O)N2` (stereo not drawn) [Compound 358, N-Methyl-4-(4-((2-methyl-3-oxo-8-propyl-3,4-dihydro-2H-benzo[b][1,4]oxazin-6-yl)methyl)piperazin-1-yl)benzamide] gave an IC50 of more than 200 nM. Further, the PF50 in the experiment with Jurkat cell line is more than 3.0.

`CNC(=O)c1ccc(N2CCN(Cc3cc4c(c(C5CC5)c3)OC(C)C(=O)N4)CC2)cc1` (stereo not drawn) [Compound 347, 4-(4-((8-Cyclopropyl-2-methyl-3-oxo-3,4-dihydro-2H-benzo[b][1,4]oxazin-6-yl)methyl)piperazin-1-yl)-N-methylbenzamide] had a half-inhibitory concentration (IC50) against PARP of 100 nM. Moreover, in the experiment with Jurkat cell line, the PF50 turned out to be 10.1.

For `CC1Oc2ccc(CN3CCN(c4ccc(C(=O)NCC5CC5)cc4)CC3)cc2NC1=O` (stereo not drawn) [Compound 226, N-(Cyclopropylmethyl)-4-(4-((2-methyl-3-oxo-3,4-dihydro-2H-benzo[b][1,4]oxazin-6-yl)methyl)piperazin-1-yl)benzamide], on PARP, the half-inhibitory concentration (IC50) was 39.8 to 100 nM. Besides, in the experiment on Jurkat cell line, the PF50 entry is reported as “≦0.9”.

For the molecule `CC1Oc2c(Cl)cc(CN3CC=C(c4ccc(Cl)cc4)CC3)cc2NC1=O` (stereo not drawn) [Compound 166, 8-Chloro-6-((4-(4-chlorophenyl)-5,6-dihydropyridin-1(2H)-yl)methyl)-2-methyl-2H-benzo[b][1,4]oxazin-3(4H)-one], at PARP, the IC50 is not below 126 nM. Also, the PF50 in the experiment on Jurkat cell line is recorded as 1.0-1.9.

`CC1Oc2cc(F)c(CN3CCN(c4ccc(C#N)cc4)CC3)cc2NC1=O` (stereo not drawn) [Compound 339, 4-(4-((7-Fluoro-2-methyl-3-oxo-3,4-dihydro-2H-benzo[b][1,4]oxazin-6-yl)methyl)piperazin-1-yl)benzonitrile]: the IC50 at PARP is 79.4 nM. In the experiment on Jurkat cell line, the PF50 is listed as 1.0.

As to `CC1Oc2cc(F)c(CN3CCN(c4ccc(C(=O)NC5CC5)cc4)CC3)cc2NC1=O` (stereo not drawn) [Compound 338, N-Cyclopropyl-4-(4-((7-fluoro-2-methyl-3-oxo-3,4-dihydro-2H-benzo[b][1,4]oxazin-6-yl)methyl)piperazin-1-yl)benzamide], 79.4 nM corresponded to half-maximal inhibition on PARP (IC50). In addition, the PF50 in the experiment with Jurkat cell line was 0.4.

On PARP, `CNC(=O)c1ccc(N2CCN(Cc3cc4c(cc3F)OC(C)C(=O)N4)CC2)cc1` (stereo not drawn) [Compound 335, 4-(4-((7-Fluoro-2-methyl-3-oxo-3,4-dihydro-2H-benzo[b][1,4]oxazin-6-yl)methyl)piperazin-1-yl)-N-methylbenzamide] showed an IC50 of 63.1 nM. Further, the PF50 in the experiment with Jurkat cell line worked out at 0.3.
